{"source": "paper PMC4935942", "about": "“Efficient Inhibition of Hepatitis B Virus Infection by a preS1-binding Peptide” (Scientific Reports, 2016)", "key": {"[1]": {"test_system": "preS1/2-48^myr", "test": "preS1/2-48^myr-FITC binding to immobilized N-biotinylated B10 monomer/concatemers", "set-up": "species or system HBV (genotype D)", "conditions": "N-biotinylated peptide 2 μg/well on streptavidin-coated wells; 1 h at room temperature; fluorescence", "protocol": "(§1) The N-biotinylated B10 monomer or concatemers (Fig. 1A) (2 μg/well) was applied into the streptavidin-coated wells and incubated for 45 minutes at room temperature. Wells were washed with PBST (0.05% Tween 20 in PBS). […] Excess preS1/2-48^myr-FITC peptides were removed with PBST. Fluorescence intensity was then measured using a VICTOR X multilabel reader (Perkin Elmer, Waltham, MA). In virus capture assays, 1 × 10^6 viruses from pooled HBV positive serum (Ruijin Hospital, Shanghai) were applied per well. After incubation at 4 °C for 4 hours, wells were washed and 100 μl of horseradish peroxidase-labeled HBsAg antibody (Kehua, Shanghai, China) was added and incubated for 1 hour at room temperature. The absorbance at 450 nm was measured."}, "[2]": {"test_system": "HBV particles", "test": "HBV virus capture assay", "format": "binding, Hepatitis B virus", "conditions": "1 × 10^6 viruses per well from pooled HBV positive serum; 4 °C for 4 h; HRP-labeled HBsAg antibody, absorbance at 450 nm", "protocol": "as §1"}, "[3]": {"test_system": "binding of preS1/2-48^myr-FITC to PMH", "test": "Inhibition of preS1/2-48^myr-FITC binding to PMH", "format": "cell-based, mouse (C57BL/6)", "conditions": "0.5 μM preS1/2-48^myr-FITC, 100 μM peptide (200-fold molar excess), 4 h at 37 °C; confocal microscopy", "protocol": "PMH and HepG2 cells were seeded into 12-well plates at a density of 1 × 10^5 cells per well and cultured in WEM and DMEM without FBS respectively. […] Cell nuclei were stained with DAPI (4′6′-diamidino-2-phenylindole) (Sangon, Shanghai, China) for 10 minutes at room temperature. Cells were examined using a confocal microscope (Leica Biosystems, Germany)."}, "[4]": {"test_system": "HBV attachment to PMH", "test": "HBV attachment to PMH (real-time PCR)", "format": "cell-based, Hepatitis B virus", "conditions": "1 × 10^7 GE/well viruses pre-incubated 30 min at 37 °C, 4 h at 37 °C, triplicate, repeated at least three times", "protocol": "(§2) For HBV attachment assays, viruses in HepAD38 supernatants were precipitated in 10% polyethylene glycol (PEG) 8000 (Sangon) for 16 hours at 4 °C, centrifuged at 7,000 × g for 1 hour at 4 °C and resuspended in DMEM. Viral titers were determined using a real-time PCR kit (Qiagen, Düsseldorf, Germany) and represented as genome equivalent per milliliter (GE/ml). […] After incubation at 37 °C for 4 hours, cells were washed repeatedly with ice-cold PBS. Viral DNA was prepared from cell lysate with DNeasy Blood Kit (Qiagen) and quantified using real-time PCR with primers 5′-[…] -3′ and 5′-[…] -3′."}, "[5]": {"test_system": "HBV attachment to PMH", "test": "HBV attachment to PMH (immunofluorescent staining of cell-bound HBsAg)", "format": "cell-based, Hepatitis B virus", "conditions": "1 μM; immunofluorescence", "protocol": "as §2\n(§3) PHH at 14 days post infection and PTH at 12 days post infection were washed 3 times with ice-cold PBS and fixed in 3.7% paraformaldehyde in PBS for 15 min at room temperature. Cells were washed, permeabilized with 0.5% Triton X-100 in PBS, washed again and incubated in 1% BSA in PBST for 30 minutes at room temperature. Cells were then stained with a polyclonal rabbit anti-HBcAg (1:700 dilution, Dako, Inc, Carpinteria, CA) overnight at 4 °C in a humidified chamber. After washing, PHH and PTH were incubated with Alexa Fluor 488 goat anti-rabbit IgG (H+L) and Alexa Fluor 546 goat anti-rabbit IgG (H+L) (1:1000 dilution, Life Technologies, USA) for 1 hour at room temperature in dark, respectively. After 3 washes in dark, cells were stained with DAPI for 10 minutes at room temperature. […]"}, "[6]": {"test_system": "HBV attachment to HepG2 cells", "test": "HBV attachment to HepG2 cells", "format": "cell-based, Hepatitis B virus", "conditions": "real-time PCR and immunofluorescent staining of HBsAg; viruses pre-incubated with 4B10 0.1 nM, 10 nM or 1 μM", "protocol": "as §2, §3"}, "[7]": {"test_system": "HBV infection of PTH", "test": "Intracellular HBcAg expression in HBV-infected PTH (immunofluorescence)", "format": "cell-based, Hepatitis B virus", "conditions": "day 12 post-infection", "protocol": "(§4) All infections were repeated at least twice.\n(§5) PHH at 14 days post infection and PTH at 12 days post infection were washed 3 times with ice-cold PBS and fixed in 3.7% paraformaldehyde in PBS for 15 min at room temperature. Cells were washed, permeabilized with 0.5% Triton X-100 in PBS, washed again and incubated in 1% BSA in PBST for 30 minutes at room temperature. Cells were then stained with a polyclonal rabbit anti-HBcAg (1:700 dilution, Dako, Inc, Carpinteria, CA) overnight at 4 °C in a humidified chamber. After washing, PHH and PTH were incubated with Alexa Fluor 488 goat anti-rabbit IgG (H+L) and Alexa Fluor 546 goat anti-rabbit IgG (H+L) (1:1000 dilution, Life Technologies, USA) for 1 hour at room temperature in dark, respectively. After 3 washes in dark, cells were stained with DAPI for 10 minutes at room temperature. For detection of HBV attached to PMH and HepG2 cells, cells were stained with a mouse monoclonal anti-HBsAg (1:1000 dilution, Dako) followed by Alexa Fluor 488 goat anti-mouse IgG (H+L) (1:1000 dilution, Life Technologies). Cells were examined under a confocal microscope (Leica Biosystems)."}, "[8]": {"test_system": "HBV infection of PHH", "test": "Intracellular HBcAg expression in HBV-infected PHH (immunofluorescence)", "format": "cell-based, Hepatitis B virus", "conditions": "day 14 post-infection", "protocol": "as §4, §5"}, "[9]": {"test_system": "VSV-G pseudotyped lentivirus", "format": "cell-based"}, "[10]": {"test_system": "PMH", "conditions": "4B10 0.01 μM, 1 μM and 100 μM, or LA-20; 72 h; CCK-8", "description": "(§6) To rule out potential cytotoxicity of the peptides, the viability of cells exposed to 4B10 (0.01 μM, 1 μM and 100 μM) or LA-20 for 72 hours was analyzed.\n(§7) For PTH, cells were cultured in medium containing 4B10 and LA-20 (0.01 μM, 1 μM or 100 μM) and viability measured using cell counting kit-8 (CCK-8) (Dojindo, Japan)."}, "[11]": {"test_system": "HepG2 cells", "conditions": "4B10 0.01 μM, 1 μM and 100 μM, or LA-20; 72 h; CCK-8", "description": "as §6, §7"}, "[12]": {"test_system": "HBV infection of PTH", "description": "(§8) Freshly isolated PTH were seeded into collagen-coated 6-well plates (BD Biosciences, San Jose, CA) and maintained in Hepato-Stim Hepatocyte Defined medium (HDM) (BD Biosciences) at 5 × 10^5 cells per well. Twenty-four hours post-seeding, PTH were infected with concentrated viruses prepared from HepAD38 supernatants (genotype D) at a multiplicity of infection (MOI) of 100 GE per cell. […] After incubation at 37 °C overnight, cells were washed 5 times with PBS and cultivated for 12 days. For HBV infection of PHH, freshly prepared PHH were seeded into collagen-coated wells in supplemented WEM at 5 × 10^5 cells per well. […] PTH and PHH culture media were changed every two days, and hepatitis B surface antigen (HBsAg) and e antigen (HBeAg) in collected supernatants were determined using enzyme linked immunosorbent assay (ELISA) kits (Kehua). All infections were repeated at least twice."}, "[13]": {"test_system": "PHH", "conditions": "0.05 nM to 500 μM; 24 h; CellTiter-Glo", "description": "PHH and PTH were seeded into collagen-coated 96-well plates at 5 × 10^4 cells per well."}, "[14]": {"test_system": "HIV-1", "conditions": "TZM-bl cells; strains B12 and SH1.81, 200 TCID50; 4B10 up to 100 μM; luciferase, 48 h post infection", "description": "The infection of two strains of tat-expressing, replication deficient HIV-1, B12 and SH1.81, was tested on TZM-bl cells harboring HIV-1 LTR-luciferase reporter[30]. Envelope proteins of B12 and SH1.81 were derived from HIV-1 B and A/E recombinant subtype, respectively. […] Forty-eight hours post infection, intracellular luciferase activity was measured with a luciferase assay kit (Promega, Madison, WI)."}, "[15]": {"test_system": "HBV infection of PHH", "test": "HBV infection of primary human hepatocytes", "conditions": "for IC50: pooled patient sera (genotypes B and C), MOI 400, day 14 post infection, ELISA, printed with 'about'", "description": "as §8"}, "[16]": {"test_system": "primary mouse hepatocytes (PMH)", "test": "Flow cytometry binding of FITC-labelled peptides to PMH", "conditions": "discussion; Fig. 3A"}, "[17]": {"conditions": "PTH, 4B10 0.01-100 nM or LA-20 100 nM, ELISA"}}, "note": "Like-named read-outs stand apart in the source and are kept apart here. Where no end group is shown, it is not given here."}
{"sequence": "LRNIRLRNIRLRNIRLRNIR [4B10]", "values": [{"measurement": "preS1-binding activity (preS1/2-48^myr-FITC)", "setting": "[1]", "value": "showed the highest binding activity"}, {"measurement": "HBV-binding activity", "setting": "[2]", "value": "showed the highest binding activity"}, {"measurement": "inhibition of binding of preS1/2-48^myr-FITC to PMH", "setting": "[3]", "value": "completely blocked"}, {"measurement": "reduction of PMH-associated virions", "setting": "[4]; 0.1 nM", "value": 39, "unit": "%"}, {"measurement": "reduction of PMH-associated virions", "setting": "[4]; 10 nM", "value": 56, "unit": "%"}, {"measurement": "reduction of PMH-associated virions", "setting": "[4]; 1 μM", "value": 74, "unit": "%"}, {"measurement": "HBV attachment to PMH (HBsAg staining)", "setting": "[5]", "value": "markedly reduced"}, {"measurement": "HBV attachment to HepG2 cells", "setting": "[6]", "value": "inhibited HBV attachment to HepG2 cells"}, {"measurement": "post-infection HBcAg expression", "setting": "[7]", "value": "dose-dependent decrease in post-infection HBcAg expression"}, {"measurement": "post-infection HBcAg expression", "setting": "[8]", "value": "dose-dependent decrease in post-infection HBcAg expression"}, {"measurement": "inhibitory effect on infection of VSV-G pseudotyped lentivirus", "setting": "[9]", "value": "no inhibitory effect"}, {"measurement": "cytotoxic effect on PMH", "setting": "[10]", "value": "No notable cytotoxic effect"}, {"measurement": "cytotoxic effect on HepG2 cells", "setting": "[11]", "value": "No notable cytotoxic effect"}, {"measurement": "inhibition of HBV infection of primary tupaia hepatocytes", "setting": "[12]", "value": "low nanomolar concentrations"}, {"measurement": "effect on post-infection HBeAg expression", "setting": "[12]; [17]", "value": "dose-dependent decrease"}, {"measurement": "effect on post-infection HBsAg expression", "setting": "[12]; [17]", "value": "dose-dependent decrease"}, {"measurement": "IC50", "setting": "[12]; infection of PTH", "value": "0.1 to 1", "unit": "nM"}, {"measurement": "inhibition of infection by genotype D viruses", "setting": "[12]; viruses derived from HepAD38 cells", "value": "could inhibit the infection of genotype B and C viruses from HBV-infected patients as well as genotype D viruses"}, {"measurement": "cytotoxic effect on PHH", "setting": "[13]", "value": "No cytotoxicity was observed"}, {"measurement": "inhibitory effect on infection of HIV-1", "setting": "[14]", "value": "no inhibitory effect"}, {"measurement": "inhibition of HBV infection (in words)", "setting": "[15]; PHH, 4B10 0.05-500 nM", "value": "Dose-dependent and efficient inhibition of HBV infection"}, {"measurement": "inhibition of HBV infection of primary human hepatocytes", "setting": "[15]; abstract", "value": "low nanomolar concentrations"}, {"measurement": "IC50", "setting": "[15]; read-out: IC50 based on HBeAg measurement, PHH", "value": "0.5 to 5", "unit": "nM"}, {"measurement": "IC50", "setting": "[15]; read-out: IC50 based on HBsAg measurement, PHH", "value": "0.05 to 0.5", "unit": "nM"}, {"measurement": "inhibition of infection by genotype B and C viruses", "setting": "[15]; viruses from HBV-infected patients", "value": "could inhibit the infection of genotype B and C viruses"}, {"measurement": "binding to primary hepatocytes", "setting": "[16]", "value": "does not bind"}]}
